Results on 3 molecules are retold here after patent publication US20070191333A1, “Antibacterial agents” (Warner Lambert Company LLC, priority 2003, published 2007).

What all share (format): cell-based
The test system of one test is E. faecalis MGH-2. In words: Antibacterial microtitration MIC, E. faecalis MGH-2. The conditions noted are these: strain MGH-2; for MIC: Enterococcus faecalis, MGH2, Gram Positive Bacteria, read-out: Minimum Inhibitory Concentrations E. faecalis MGH-2. As for the experimental part: (§1) Test A—Antibacterial Assays The compounds of the present invention were tested against an assortment of Gram-negative and Gram-positive organisms using standard microtitration techniques (Cohen et. al., Antimicrob., 1985; 28:766; Heifetz, et. al., Antimicrob., 1974; 6:124).

For the next test, the system named is S. pneumo SV-1. Kind of test: Antibacterial microtitration MIC, S. pneumo SV-1. To be noted: Gram Positive Bacteria, strain SV-1. The procedure: as §1
In a further test the test system is S. aureus UC-76. Kind of test: Antibacterial microtitration MIC, S. aureus UC-76. The conditions noted are these: strain UC-76; for MIC: Staphylococcus aureus, UC76, Gram Positive Bacteria, read-out: Minimum Inhibitory Concentrations S. aureus UC-76. The procedure:
as §1

Another test concerns S pyogenes C203. Kind of test: Antibacterial microtitration MIC, S pyogenes C203. The conditions noted are these: Gram Positive Bacteria, strain C203; for MIC: read-out: Minimum Inhibitory Concentrations S pyogenes C203. As for the experimental part: as §1

Values after ≈ are worked out from the molar mass of the structure shown.

Take `Cc1c(N2CCC(C(N)C(C)(C)C#N)C2)c(F)cc2c(=O)n(N)c(=O)n(C3CC3)c12` (stereo not drawn) [drawing 419]: the MIC came to 32 µg/mL (≈ 77.2 µM) in the test on E. faecalis MGH-2, 12 µg/mL (≈ 29 µM) with S. aureus UC-76 and 32 µg/mL (≈ 77.2 µM) with S pyogenes C203. Further, the “Minimum Inhibitory Concentrations S. pneumo SV-1” value with S. pneumo SV-1 worked out at 32 µg/mL.

As to `Cc1c(N2CCC(C(N)C(C)(C)C#N)C2)c(F)cc2c(=O)n(N)c(=O)n(C3CC3)c12` (stereo not drawn) [drawing 420], the “Minimum Inhibitory Concentrations E. faecalis MGH-2” value with E. faecalis MGH-2 (Gram Positive Bacteria) turned out to be 16 µg/mL. Moreover, the “Minimum Inhibitory Concentrations S. pneumo SV-1” value in the test with S. pneumo SV-1 worked out at 8 µg/mL. The “Minimum Inhibitory Concentrations S. aureus UC-76” value in the test on S. aureus UC-76 (Gram Positive Bacteria) came to 8 µg/mL. The “Minimum Inhibitory Concentrations S pyogenes C203” value with S pyogenes C203 came out at 16 µg/mL.

As to `COc1c(N2CC(CNCCC#N)C3(CC3)C2)c(F)cc2c(=O)n(N)c(=O)n(C3CC3)c12` (stereo not drawn) [drawing 421], the MIC was 1 µg/mL (≈ 2.26 µM) with E. faecalis MGH-2, 0.06 µg/mL (≈ 0.136 µM) in the test on S. pneumo SV-1 (read-out: Minimum Inhibitory Concentrations S. pneumo SV-1), 0.25 µg/mL (≈ 0.565 µM) in the test with S. aureus UC-76 and 0.06 µg/mL (≈ 0.136 µM) in the test on S pyogenes C203.
